Results reported in the supplement of paper PMC11451515.

Legend:
[1] = test system: SEM cells; assay: AUC of viability dose-response curve (% viability x log10 dose units); higher = less sensitive; details: 48 h
In short: (§1)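 Leukemia cells adapted to each medium were seeded in 1536-well plates (500 or 1000 cells/well). They were dosed with library compounds in DMSO at 11 threefold doses, 47 μM to 0.79 nM, for 48 h at 37°C. CellTiter-Glo One luminescence was normalised per plate to DMSO and cell-free wells. Area under the curve was integrated by trapezoidal rule over log10 doses on a four-parameter log-logistic fit; curves exceeding full viability were scaled and curves failing quality control removed.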

[2] = test system: NOMO1; assay: as above; details: 48 h
In short: as §1

[3] = test system: P12-Ichikawa; assay: as above; details: 48 h
In short: as §1

[4] = test system: SEM cells; assay: cell viability relative to DMSO control; higher = less cytotoxic; details: 48 h
In short: (§2)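 Library compounds in DMSO were pin-dosed into 1536-well plates (5 μl) holding NOMO1 or SEM (500 cells/well) or P12-Ichikawa (1000 cells/well) leukemia cells, across an 11-point threefold series of 47 μM to 0.79 nM. Each cell line had been adapted for at least four passages in each medium. CellTiter-Glo One luminescence was read after 48 h at 37°C. Viability is the per-plate percentage relative to DMSO wells, with cell-free wells as background.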

[5] = test system: P12-Ichikawa; assay: as above; details: HPLM + 10% dialyzed FBS, 48 h
In short: as §2

[6] = test system: NOMO1; assay: as above; details: HPLM + 10% dialyzed FBS, 48 h
In short: as §2

COC(c1ccccc1)(c1ccccc1)[C@H](Oc1nc(C)cc(C)n1)C(=O)O
AUC of viability dose-response curve
Details | [1] | [2] | [3]
HPLM + 10% dialyzed FBS | 462 | 444 | 464
RPMI 5 mM glucose + 10% FBS | 466 | 452 | 465
RPMI 5 mM glucose + 10% dialyzed FBS | 463 | 467 | 464

[4], RPMI 5 mM glucose + 10% dialyzed FBS
Details | cell viability [%]
0.000781 µM | 115
0.00234 µM | 134
0.00702 µM | 122
0.0211 µM | 139
0.0632 µM | 177
0.19 µM | 160
0.569 µM | 167
1.71 µM | 152
5.12 µM | 140
15.4 µM | 133
46.1 µM | 85.1

C=C1/C(=C\C=C2/CCC[C@]3(C)[C@@H]([C@H](C)CCCC(C)(C)O)CC[C@@H]23)C[C@@H](O)C[C@@H]1O
Details | AUC of viability dose-response curve | cell viability [%]
[1], HPLM + 10% dialyzed FBS | 459 | –
[1], RPMI 5 mM glucose + 10% FBS | 449 | –
[1], RPMI 5 mM glucose + 10% dialyzed FBS | 450 | –
[2], HPLM + 10% dialyzed FBS | 440 | –
[2], RPMI 5 mM glucose + 10% FBS | 448 | –
[2], RPMI 5 mM glucose + 10% dialyzed FBS | 448 | –
[3], HPLM + 10% dialyzed FBS | 454 | –
[3], RPMI 5 mM glucose + 10% FBS | 445 | –
[3], RPMI 5 mM glucose + 10% dialyzed FBS | 458 | –
[5], 0.000781 µM | – | 122
[5], 0.00234 µM | – | 126
[5], 0.00702 µM | – | 118
[5], 0.0211 µM | – | 131
[5], 0.0632 µM | – | 124
[5], 0.19 µM | – | 123
[5], 0.569 µM | – | 120
[5], 1.71 µM | – | 117
[5], 15.4 µM | – | 118
[5], 46.1 µM | – | 90.4

[4], RPMI 5 mM glucose + 10% FBS
Details | cell viability [%]
0.000781 µM | 105
0.00234 µM | 120
0.00702 µM | 117
0.0211 µM | 113
0.0632 µM | 123
0.19 µM | 110
0.569 µM | 126
1.71 µM | 113
5.12 µM | 92.9
15.4 µM | 98.7
46.1 µM | 57.2

O=C(NCC1CCCCN1)c1cc(OCC(F)(F)F)ccc1OCC(F)(F)F (configuration not stated)
AUC of viability dose-response curve
Details | [1] | [2] | [3]
HPLM + 10% dialyzed FBS | 457 | 326 | 352
RPMI 5 mM glucose + 10% FBS | 464 | 304 | 353
RPMI 5 mM glucose + 10% dialyzed FBS | 468 | 317 | 375

cell viability [%], [4]
Details | HPLM + 10% dialyzed FBS | RPMI 5 mM glucose + 10% FBS
0.000781 µM | 104 | 117
0.00234 µM | 130 | 115
0.00702 µM | 115 | 124
0.0211 µM | 128 | 137
0.0632 µM | 130 | 121
0.19 µM | 151 | 127
0.569 µM | 130 | 131
1.71 µM | 140 | 128
5.12 µM | 115 | 120
15.4 µM | 118 | 121
46.1 µM | 43.7 | 61.9

O=C1NC(=O)/C(=C\c2ccc(-c3ccc(F)cc3)o2)S1
AUC of viability dose-response curve
Details | [1] | [2] | [3]
HPLM + 10% dialyzed FBS | 455 | 415 | 436
RPMI 5 mM glucose + 10% FBS | 462 | 462 | 445
RPMI 5 mM glucose + 10% dialyzed FBS | 457 | 444 | 455

C1=C/COCc2cc(ccc2OCCN2CCCC2)Nc2nccc(n2)-c2cccc(c2)OCC/1
Details | AUC of viability dose-response curve | cell viability [%]
[1], HPLM + 10% dialyzed FBS | 354 | –
[1], RPMI 5 mM glucose + 10% FBS | 369 | –
[1], RPMI 5 mM glucose + 10% dialyzed FBS | 350 | –
[3], HPLM + 10% dialyzed FBS | 409 | –
[3], RPMI 5 mM glucose + 10% FBS | 415 | –
[3], RPMI 5 mM glucose + 10% dialyzed FBS | 406 | –
[6], 0.000781 µM | – | 20.8
[6], 0.00234 µM | – | 84.8
[6], 0.00702 µM | – | 123
[6], 0.0211 µM | – | 133
[6], 0.0632 µM | – | 161
[6], 0.19 µM | – | 130
[6], 0.569 µM | – | 124
[6], 1.71 µM | – | 94.7
[6], 5.12 µM | – | 63.2
[6], 15.4 µM | – | 7.96
[6], 46.1 µM | – | 5.7

CCNC(=O)C[C@H]1/N=C(/C2=CC=C(Cl)C=C2)C3=CC(=CC=C3[N]4C(=NN=C14)C)OC
AUC of viability dose-response curve
Details | [1] | [2] | [3]
HPLM + 10% dialyzed FBS | 442 | 465 | 464
RPMI 5 mM glucose + 10% FBS | 450 | 461 | 460
RPMI 5 mM glucose + 10% dialyzed FBS | 440 | 445 | 462

[4], RPMI 5 mM glucose + 10% dialyzed FBS
Details | cell viability [%]
0.000781 µM | 122
0.00234 µM | 124
0.00702 µM | 138
0.0211 µM | 119
0.0632 µM | 141
0.19 µM | 117
0.569 µM | 155
1.71 µM | 122
5.12 µM | 108
15.4 µM | 99.4
46.1 µM | 22.2
